Results on 18 compounds are retold here after article PMC12692968, “Design, Synthesis, Molecular Docking, and Anticancer Activity of Chalcone Derivatives as VEGFR-2 Inhibitors” (Molecules, 2025).

The test system of series [1] is human cervical squamous cell carcinoma cell line SiHa. In words: CCK-8 cytotoxicity assay, SiHa cells. The series is classed as cell-based. Particulars: for IC50: Homo sapiens, SiHa, CCK-8, 48 h incubation, mean ± SD, n = 3. As to the method: (§1) The SiHa, K562, B16 and HK-2 cells were obtained from Wuhan Pricella Biotechnology Co., Ltd. (Wuhan, China). […] 2–5 × 10^3 cells were added to each well of a 96-well plate and incubated for 12 h, followed by the addition of the tested compounds. After incubation for 48 h, 10 μL of the CCK-8 solution was added to each well and incubated for another 2 h. The absorbance of each well was measured at 450 nm using an enzyme-linked immunosorbent assay (ELISA) reader. The experiments were replicated three times. The inhibition rate of cancer cells was calculated using the Formula (1). The half-maximal inhibitory concentration (IC50) value was calculated using GraphPad Prism 8.0 software.

Series [2] has as its system human chronic myeloid leukemia cell line K562. The experiment in a line: CCK-8 cytotoxicity assay, K562 cells. The class given is cell-based. The following applies: for IC50: CCK-8, 48 h incubation, mean ± SD, n = 3. The protocol:
as §1

For series [3], the system named is mouse melanoma cell line B16. The experiment in a line: CCK-8 cytotoxicity assay, B16 cells. The series is classed as cell-based. The following applies: for IC50: CCK-8, 48 h incubation, mean ± SD, n = 3. The protocol:
as §1

For series [4], the system named is human renal epithelial cell line HK-2. In words: CCK-8 cytotoxicity assay, HK-2 cells. The class given is cell-based. The following applies: Homo sapiens, Epithelial cell; CCK-8, 48 h incubation, mean ± SD, n = 3. As to the method:
as §1, with “The cytotoxicity of synthesized compounds against HK-2 cells was also detected. […] The SiHa,” for “The SiHa,”

Series [5] concerns the target T1, VEGFR-2 (KDR) protein kinase (Homo sapiens, UniProt P35968).
T1 construct: purchased BPS Biosciences, San Diego, CA, USA
The experiment in a line: VEGFR-2 (KDR) Kinase Assay Kit enzyme inhibition assay. The class given is biochemical. Particulars: Kinase-Glo MAX, 30 °C 45 min, mean ± SD, n = 3. As to the method:
Many studies have shown that abnormal VEGFR-2 signaling could induce proliferation of cervical squamous cell carcinoma cells, myeloid leukemia cancer cells, and melanoma cells. […] A VEGFR-2 (KDR) Kinase Assay Kit (BPS Biosciences, San Diego, CA, USA) was used to conduct a VEGFR-2 inhibition assay following the manufacturer’s protocol. Briefly, kinase buffer and ATP and PTK substrate (Poly-Glu,Tyr 4:1) were diluted with distilled water to prepare a master mix solution. The master mix solution, test sample, and VEGFR-2 (KDR) protein kinase (2 ng/μL) were added to a 96-well plate and incubated at 30 °C for 45 min. After incubation, Kinase-Glo™ MAX (BPS Biosciences) reagent was added to each well, and incubated for 15 min at room temperature. Then it was immediately detected with an ELISA reader. The experiments were replicated three times.

T1 sequence (P35968 20-1356): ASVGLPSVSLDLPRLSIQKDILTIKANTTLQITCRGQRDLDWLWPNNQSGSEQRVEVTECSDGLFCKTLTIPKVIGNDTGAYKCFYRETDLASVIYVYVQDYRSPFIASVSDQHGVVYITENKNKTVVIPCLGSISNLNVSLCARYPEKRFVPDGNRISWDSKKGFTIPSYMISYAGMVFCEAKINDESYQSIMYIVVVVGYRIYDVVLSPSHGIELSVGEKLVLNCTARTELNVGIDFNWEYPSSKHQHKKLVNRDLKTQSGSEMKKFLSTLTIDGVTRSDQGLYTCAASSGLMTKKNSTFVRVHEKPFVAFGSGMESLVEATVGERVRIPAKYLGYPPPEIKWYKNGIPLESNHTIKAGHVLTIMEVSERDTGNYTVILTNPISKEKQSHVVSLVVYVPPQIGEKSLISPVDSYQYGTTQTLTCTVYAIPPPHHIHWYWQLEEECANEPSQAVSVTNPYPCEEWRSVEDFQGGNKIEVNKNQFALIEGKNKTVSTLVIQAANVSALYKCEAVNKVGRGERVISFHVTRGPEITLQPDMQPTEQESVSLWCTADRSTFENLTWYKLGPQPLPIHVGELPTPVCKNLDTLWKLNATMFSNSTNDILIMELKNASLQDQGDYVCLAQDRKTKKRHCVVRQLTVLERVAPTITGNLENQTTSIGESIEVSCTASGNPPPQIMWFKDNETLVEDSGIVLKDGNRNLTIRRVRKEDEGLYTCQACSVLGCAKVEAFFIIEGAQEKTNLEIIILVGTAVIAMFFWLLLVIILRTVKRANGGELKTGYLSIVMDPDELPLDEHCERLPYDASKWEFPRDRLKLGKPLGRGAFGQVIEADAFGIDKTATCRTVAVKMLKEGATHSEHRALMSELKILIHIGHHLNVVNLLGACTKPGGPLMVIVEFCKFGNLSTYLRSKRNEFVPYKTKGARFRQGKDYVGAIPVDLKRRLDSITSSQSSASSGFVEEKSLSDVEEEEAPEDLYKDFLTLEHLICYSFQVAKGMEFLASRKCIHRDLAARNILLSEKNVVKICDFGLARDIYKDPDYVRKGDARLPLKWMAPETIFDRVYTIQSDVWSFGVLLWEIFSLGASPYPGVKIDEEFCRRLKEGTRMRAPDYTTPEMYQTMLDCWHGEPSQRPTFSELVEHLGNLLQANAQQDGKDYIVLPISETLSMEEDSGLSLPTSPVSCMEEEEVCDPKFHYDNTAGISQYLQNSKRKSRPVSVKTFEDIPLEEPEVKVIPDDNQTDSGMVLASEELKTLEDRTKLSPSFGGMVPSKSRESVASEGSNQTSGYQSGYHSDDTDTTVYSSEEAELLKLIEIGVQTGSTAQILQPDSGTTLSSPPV

For the compound `O=C(Nc1ccc(C(=O)/C=C/c2ccc(O)c(O)c2)cc1)Nc1ccc(Cl)c(C(F)(F)F)c1` [Compound 2q, (E)-1-(4-chloro-3-(trifluoromethyl)phenyl)-3-(4-(3-(3,4-dihydroxyphenyl)acryloyl)phenyl)urea], the IC50 was found to be 2.53 ± 0.09 µM in series [1]; 1.12 ± 0.1 µM in series [2] (Homo sapiens, K562, 48 h); 4.49 ± 0.24 µM in series [3] (Mus musculus, B16, 48 h); 24.3 ± 1.71 µM in series [4]; 0.55 ± 0.04 µM in series [5].

Take `O=C(Nc1ccc(C(=O)/C=C/c2ccc(O)cc2)cc1)Nc1ccc(Cl)c(C(F)(F)F)c1` [Compound 2s, (E)-1-(4-chloro-3-(trifluoromethyl)phenyl)-3-(4-(3-(4-hydroxyphenyl)acryloyl)phenyl)urea]: the IC50 in series [1] is 8.96 ± 0.03 µM; in series [2] (Homo sapiens, K562, 48 h), 6.47 ± 0.36 µM; in series [3] (Mus musculus, B16, 48 h), 4.29 ± 0.52 µM.

Regarding `COc1ccc(/C=C/C(=O)c2ccc(NC(=O)Nc3ccc(Cl)c(C(F)(F)F)c3)cc2)c(OC)c1OC` [Compound 2j, (E)-1-(4-chloro-3-(trifluoromethyl)phenyl)-3-(4-(3-(2,3,4-trimethoxyphenyl)acryloyl)phenyl)urea], the concentration for half-maximal inhibition (IC50) in series [1] came to 6.62 ± 0.28 µM; in series [2] (Homo sapiens, K562, 48 h), 2.4 ± 0.22 µM; in series [3] (Mus musculus, B16, 48 h), 9.73 ± 0.98 µM.

Regarding `O=C(Nc1ccc(C(=O)/C=C/c2ccc(F)cc2)cc1)Nc1ccc(Cl)c(C(F)(F)F)c1` [Compound 2c, (E)-1-(4-chloro-3-(trifluoromethyl)phenyl)-3-(4-(3-(4-fluorophenyl)acryloyl)phenyl)urea], the IC50 is 1.03 ± 0.02 µM in series [1]; 2.05 ± 0.13 µM in series [2] (Homo sapiens, K562, 48 h); 5.02 ± 0.18 µM in series [3] (Mus musculus, B16, 48 h); 15.7 ± 1.22 µM in series [4]; 0.68 ± 0.03 µM in series [5]. In addition, the “fold increase in cytotoxicity compared to unsubstituted compound 2a, SiHa” value in series [1] (ratio of IC50 values vs 2a) came out at 4.3 fold. Moreover, the “fold increase in cytotoxicity compared to unsubstituted compound 2a, K562” value in series [2] (ratio of IC50 values vs 2a) is reported as 6.2 fold. For the same compound, the “fold increase in cytotoxicity compared to unsubstituted compound 2a, B16” value in series [3] (ratio of IC50 values vs 2a) was determined as 2.1 fold.

As for `COc1ccc(/C=C/C(=O)c2ccc(NC(=O)Nc3ccc(Cl)c(C(F)(F)F)c3)cc2)cc1O` [Compound 2o, (E)-1-(4-chloro-3-(trifluoromethyl)phenyl)-3-(4-(3-(3-hydroxy-4-methoxyphenyl)acryloyl)phenyl)urea], the IC50 in series [1] was 1.22 ± 0.07 µM; in series [2] (Homo sapiens, K562, 48 h), 1.51 ± 0.16 µM; in series [3] (Mus musculus, B16, 48 h), 3.06 ± 0.22 µM; in series [4], 19.1 ± 1.05 µM; in series [5], 0.31 ± 0.02 µM.

Regarding `Cc1ccc(/C=C/C(=O)c2ccc(NC(=O)Nc3ccc(Cl)c(C(F)(F)F)c3)cc2)cc1C` [Compound 2k, (E)-1-(4-chloro-3-(trifluoromethyl)phenyl)-3-(4-(3-(3,4-dimethylphenyl)acryloyl)phenyl)urea], the IC50 in series [1] was 8.35 ± 0.09 µM; in series [2] (Homo sapiens, K562, 48 h), 1.73 ± 0.23 µM; in series [3] (Mus musculus, B16, 48 h) it was 6.42 ± 0.54 µM.

Turning to `O=C(Nc1ccc(C(=O)C=Cc2ccccc2)cc1)Nc1ccc(Cl)c(C(F)(F)F)c1` [Compound 2a, 1-(4-chloro-3-(trifluoromethyl)phenyl)-3-(4-cinnamoylphenyl)urea], the IC50 is 4.43 ± 0.16 µM in series [1]; 12.7 ± 0.45 µM in series [2] (Homo sapiens, K562, 48 h); 10.7 ± 0.78 µM in series [3] (Mus musculus, B16, 48 h).

Consider `O=C(Nc1ccc(C(=O)/C=C/c2cccc(Cl)c2)cc1)Nc1ccc(Cl)c(C(F)(F)F)c1` [Compound 2e, (E)-1-(4-chloro-3-(trifluoromethyl)phenyl)-3-(4-(3-(3-chlorophenyl)acryloyl)phenyl)urea], for which the concentration for half-maximal inhibition (IC50) in series [1] stood at 4.71 ± 0.29 µM; in series [2] (Homo sapiens, K562, 48 h) it was 2.91 ± 0.17 µM; in series [3] (Mus musculus, B16, 48 h) it was 11.3 ± 0.64 µM.

For the compound `COc1cc(/C=C/C(=O)c2ccc(NC(=O)Nc3ccc(Cl)c(C(F)(F)F)c3)cc2)cc(OC)c1OC` [Compound 2f, (E)-1-(4-chloro-3-(trifluoromethyl)phenyl)-3-(4-(3-(3,4,5-trimethoxyphenyl)acryloyl)phenyl)urea], the 50% inhibitory concentration (IC50) in series [1] is 4.89 ± 0.21 µM; in series [2], 1.68 ± 0.09 µM; in series [2] (Homo sapiens, K562, 48 h), 1.62 to 2.02 µM; in series [3] it was 1.65 ± 0.29 µM; in series [3] (Mus musculus, B16, 48 h), 1.62 to 2.02 µM; in series [4], 5.85 ± 0.36 µM. Besides, the IC50 in series [5] stood at 0.39 ± 0.02 µM.

Take `COc1cc(/C=C/C(=O)c2ccc(NC(=O)Nc3ccc(Cl)c(C(F)(F)F)c3)cc2)cc(OC)c1` [Compound 2h, (E)-1-(4-chloro-3-(trifluoromethyl)phenyl)-3-(4-(3-(3,5-dimethoxyphenyl)acryloyl)phenyl)urea]: the IC50 was 2.99 ± 0.27 µM in series [1]; 2.02 ± 0.12 µM in series [2]; 1.62 to 2.02 µM in series [2] (Homo sapiens, K562, 48 h); 1.62 ± 0.14 µM in series [3]; 1.62 to 2.02 µM in series [3] (Mus musculus, B16, 48 h); 9.87 ± 0.89 µM in series [4].

On to `Cc1ccc(/C=C/C(=O)c2ccc(NC(=O)Nc3ccc(Cl)c(C(F)(F)F)c3)cc2)cc1` [Compound 2g, (E)-1-(4-chloro-3-(trifluoromethyl)phenyl)-3-(4-(3-(p-tolyl)acryloyl)phenyl)urea], for which the IC50 in series [1] was found to be 6.03 ± 0.38 µM; in series [2] (Homo sapiens, K562, 48 h) it was 4.19 ± 0.26 µM; in series [3] (Mus musculus, B16, 48 h), 7.15 ± 0.49 µM.

Consider `COc1cc(/C=C/C(=O)c2ccc(NC(=O)Nc3ccc(Cl)c(C(F)(F)F)c3)cc2)cc(OC)c1O` [Compound 2r, (E)-1-(4-chloro-3-(trifluoromethyl)phenyl)-3-(4-(3-(4-hydroxy-3,5-dimethoxyphenyl)acryloyl)phenyl)urea], for which the IC50 came out at 2.22 ± 0.1 µM in series [1]; 0.97 ± 0.06 µM in series [2] (Homo sapiens, K562, 48 h); 2.93 ± 0.29 µM in series [3] (Mus musculus, B16, 48 h); 11.3 ± 0.66 µM in series [4].

`COc1ccc(/C=C/C(=O)c2ccc(NC(=O)Nc3ccc(Cl)c(C(F)(F)F)c3)cc2)cc1` [Compound 2b, (E)-1-(4-chloro-3-(trifluoromethyl)phenyl)-3-(4-(3-(4-methoxyphenyl)acryloyl)phenyl)urea]: the half-maximal inhibitory concentration (IC50) in series [1] came to 5.55 ± 0.26 µM; in series [2] (Homo sapiens, K562, 48 h), 5.08 ± 0.31 µM; in series [3] (Mus musculus, B16, 48 h), 8.32 ± 0.61 µM.

For `O=C(Nc1ccc(C(=O)/C=C/c2ccc(Cl)cc2)cc1)Nc1ccc(Cl)c(C(F)(F)F)c1` [Compound 2d, (E)-1-(4-chloro-3-(trifluoromethyl)phenyl)-3-(4-(3-(4-chlorophenyl)acryloyl)phenyl)urea], the IC50 in series [1] was 4.78 ± 0.14 µM; in series [2] (Homo sapiens, K562, 48 h), 8.41 ± 0.57 µM; in series [3] (Mus musculus, B16, 48 h), 12.8 ± 0.84 µM.

Turning to `O=C(Nc1ccc(C(=O)/C=C/c2ccco2)cc1)Nc1ccc(Cl)c(C(F)(F)F)c1` [Compound 2m, (E)-1-(4-chloro-3-(trifluoromethyl)phenyl)-3-(4-(3-(furan-2-yl)acryloyl)phenyl)urea], the IC50 in series [1] is 6.53 ± 0.24 µM; in series [2] (Homo sapiens, K562, 48 h), 8.95 ± 0.76 µM.

For the compound `CCc1ccc(/C=C/C(=O)c2ccc(NC(=O)Nc3ccc(Cl)c(C(F)(F)F)c3)cc2)cc1` [Compound 2i, (E)-1-(4-chloro-3-(trifluoromethyl)phenyl)-3-(4-(3-(4-ethylphenyl)acryloyl)phenyl)urea], the IC50 in series [1] was 7.96 ± 0.26 µM; in series [2] (Homo sapiens, K562, 48 h), 4.45 ± 0.53 µM; in series [3] (Mus musculus, B16, 48 h), 8.66 ± 0.58 µM.

On to `COc1cc(/C=C/C(=O)c2ccc(NC(=O)Nc3ccc(Cl)c(C(F)(F)F)c3)cc2)ccc1O` [Compound 2p, (E)-1-(4-chloro-3-(trifluoromethyl)phenyl)-3-(4-(3-(4-hydroxy-3-methoxyphenyl)acryloyl)phenyl)urea], for which the IC50 in series [1] turned out to be 4.25 ± 0.14 µM; in series [2] (Homo sapiens, K562, 48 h), 3.42 ± 0.18 µM; in series [3] (Mus musculus, B16, 48 h), 4.37 ± 0.28 µM; in series [4], 13.9 ± 0.58 µM.

`O=C(Nc1ccc(C(=O)/C=C/c2cccs2)cc1)Nc1ccc(Cl)c(C(F)(F)F)c1` [Compound 2n, (E)-1-(4-chloro-3-(trifluoromethyl)phenyl)-3-(4-(3-(thiophen-2-yl)acryloyl)phenyl)urea]: the IC50 is greater than 20 µM in series [1] (48 h); 15.2 ± 1.2 µM in series [2] (Homo sapiens, K562, 48 h); 2.2 ± 0.1 µM in series [5].
